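Protocol summary: plate cells (96-well), add compound at 5 concentrations, incubate 48 h, interpolate endpoints linearly. Abbreviation: GI50, concentration required for 50% inhibition of growth. TGI is the concentration that stops growth completely.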

In PubChem BioAssay (NCI) one finds GI50 and TGI data, which are given here for 17 compounds.

Some test systems named below: SNB-75 CNS; CCRF-CEM leukemia; NCI-H460 lung; ACHN renal; OVCAR-3 ovarian; MOLT-4 leukemia; HOP-62 NSCLC; OVCAR-5 ovarian; PC-3 prostate; MDA-MB-435.
What all share (test): NCI anticancer screen, dose series, 48 h

As for `CCC[CH2][Sn]([CH2]CCC)([O]c1cccc2cccnc12)[O]c1cccc2cccnc12`, the GI50 with SNB-75 CNS is 0.156 µM; with CCRF-CEM leukemia it was 0.0317 µM; with NCI-H460 lung, 0.382 µM; in the assay with ACHN renal, 0.458 µM; in the assay on OVCAR-3 ovarian it was 0.167 µM; with MOLT-4 leukemia, 0.159 µM. The GI50 in the assay with HOP-62 NSCLC was 6.31 µM. In addition, the TGI with SNB-75 CNS came to 0.563 µM; with CCRF-CEM leukemia, 0.313 µM; in the assay on NCI-H460 lung, 1.17 µM; in the assay on ACHN renal, 0.853 µM; in the assay with OVCAR-3 ovarian, 0.324 µM; in the assay on MOLT-4 leukemia, 0.377 µM. In the assay on HOP-62 NSCLC, the TGI was 19.2 µM.

Consider `CCOC(=O)C1SC(=Nc2ccc(OC)c(OC)c2)N=C1C` (stereo unspecified), for which the TGI in the assay with SNB-75 CNS was 71.1 µM; in the assay on CCRF-CEM leukemia, 59 µM; with NCI-H460 lung it was above 100 µM; with ACHN renal, above 100 µM; with OVCAR-3 ovarian, 86.7 µM; with OVCAR-5 ovarian, above 100 µM. Also, in the assay with HOP-62 NSCLC, the TGI was above 100 µM.

Consider `COC(=O)c1cc(C(=O)OC)c(CC(=O)C(=O)NC2C3CC4CC(C3)CC2C4)nc1CC(=O)C(=O)NC1C2CC3CC(C2)CC1C3` (stereo unspecified), for which the TGI with SNB-75 CNS, in the assay with CCRF-CEM leukemia, in the assay with NCI-H460 lung, in the assay on ACHN renal, in the assay with OVCAR-3 ovarian and in the assay on OVCAR-5 ovarian was above 100 µM in each case. Moreover, the TGI in the assay on MOLT-4 leukemia and with HOP-62 NSCLC was above 100 µM each time.

As for `N#CC12CCC1C1CCCCC12N1CCSCC1` (stereo unspecified), the TGI with SNB-75 CNS, in the assay with CCRF-CEM leukemia, with NCI-H460 lung, in the assay on ACHN renal, with OVCAR-3 ovarian and in the assay on MOLT-4 leukemia was above 100 µM each time. Further, in the assay with HOP-62 NSCLC, the TGI is above 100 µM.

Consider `COc1cc(OC)c(C(=O)c2cccs2)cc1N`, for which the TGI in the assay on SNB-75 CNS, in the assay with CCRF-CEM leukemia, in the assay with NCI-H460 lung, with ACHN renal, with OVCAR-3 ovarian and in the assay with OVCAR-5 ovarian was above 100 µM throughout. In addition, the TGI in the assay with MOLT-4 leukemia and in the assay with HOP-62 NSCLC was above 100 µM throughout.

For `N#CC(C(=O)C(=O)Nc1ccccc1)c1ccccc1` (stereo unspecified), the TGI in the assay on SNB-75 CNS, in the assay on CCRF-CEM leukemia, in the assay with ACHN renal, in the assay with OVCAR-3 ovarian and in the assay on MOLT-4 leukemia was above 100 µM each time.

Consider `O=c1c2ccc(S(=O)(=O)c3ccc4c(=O)n5c6ccccc6nc5c5cccc3c45)c3cccc(c32)c2nc3ccccc3n12`, for which the TGI with PC-3 prostate is above 100 µM; with NCI-H460 lung, above 100 µM; with ACHN renal, 30.2 µM; in the assay with OVCAR-3 ovarian, above 100 µM; in the assay on MDA-MB-435, above 100 µM; in the assay on OVCAR-5 ovarian, above 100 µM. The compound also had a TGI in the assay on HOP-62 NSCLC above 100 µM.

In the case of `Cc1n[nH]c(=S)n(C)c1=S`, the TGI in the assay with SNB-75 CNS, in the assay on CCRF-CEM leukemia, with NCI-H460 lung, in the assay with ACHN renal, in the assay on OVCAR-3 ovarian and in the assay with OVCAR-5 ovarian was above 100 µM in each case. In addition, the TGI with MOLT-4 leukemia and in the assay on HOP-62 NSCLC was above 100 µM in each case.

Take `COc1ccc(/C(=N\NC(=O)NN)C(c2ccc(OC)cc2)C2(O)C(=O)Nc3c(Cl)cc(Cl)cc32)cc1` (stereo unspecified): the TGI with SNB-75 CNS, in the assay with CCRF-CEM leukemia, in the assay with NCI-H460 lung, in the assay with ACHN renal, with OVCAR-3 ovarian and in the assay with OVCAR-5 ovarian was above 100 µM throughout. Moreover, the TGI in the assay on MOLT-4 leukemia and in the assay on HOP-62 NSCLC was above 100 µM throughout.

Regarding `COc1ccc(/C=C2\CN(C(=O)C(Cl)Cl)C/C(=C\c3ccc(OC)cc3)C2=O)cc1`, the GI50 in the assay with CCRF-CEM leukemia is 0.528 µM; in the assay on ACHN renal, 1.67 µM; with MOLT-4 leukemia it was 1.78 µM. The TGI was above 100 µM in the assay with CCRF-CEM leukemia, 4.7 µM with ACHN renal and above 100 µM in the assay on MOLT-4 leukemia.

For the compound `C=C(CO)CC(O)c1cc(OC)ccc1OC` (stereo unspecified), the TGI in the assay with SNB-75 CNS, in the assay on CCRF-CEM leukemia, in the assay on NCI-H460 lung, with ACHN renal, with OVCAR-3 ovarian and with OVCAR-5 ovarian was above 100 µM throughout. The TGI with MOLT-4 leukemia and in the assay with HOP-62 NSCLC was above 100 µM in each case.

Take `COC(=O)c1ccccc1N(C(=O)c1ccccc1)c1ccccc1C`: the TGI in the assay on SNB-75 CNS is above 100 µM; in the assay with CCRF-CEM leukemia it was 83.5 µM; in the assay with NCI-H460 lung it was above 100 µM; in the assay with ACHN renal, above 100 µM; with OVCAR-3 ovarian it was above 100 µM; with OVCAR-5 ovarian it was above 100 µM. Further, the TGI with MOLT-4 leukemia is 54.6 µM; with HOP-62 NSCLC, above 100 µM.

Consider `COC(=O)N1CC(=O)C(C(=O)NC23CC4CC(CC(C4)C2)C3)C1` (stereo unspecified), for which the TGI with PC-3 prostate, with CCRF-CEM leukemia, in the assay with NCI-H460 lung, in the assay with ACHN renal, with OVCAR-3 ovarian and in the assay on MDA-MB-435 was above 100 µM each time. The TGI in the assay on OVCAR-5 ovarian and in the assay with MOLT-4 leukemia was above 100 µM each time.

On to `O=C(O)C[C@@H](Cl)[C@H](NC(=O)OCc1ccccc1)C(=O)O`, for which the TGI with SNB-75 CNS, with CCRF-CEM leukemia, in the assay with NCI-H460 lung, in the assay on ACHN renal, in the assay on OVCAR-3 ovarian and in the assay on OVCAR-5 ovarian was above 100 µM each time. The TGI in the assay on MOLT-4 leukemia and in the assay on HOP-62 NSCLC was above 100 µM each time.

Turning to `O=C(O)/C(Cl)=C(\Cl)C(=O)c1ccccc1`, the TGI with SNB-75 CNS, in the assay with CCRF-CEM leukemia, with NCI-H460 lung, in the assay with ACHN renal, with OVCAR-3 ovarian and in the assay on OVCAR-5 ovarian was above 100 µM each time. Besides, the TGI in the assay on MOLT-4 leukemia and in the assay with HOP-62 NSCLC was above 100 µM throughout.

Regarding `O=C1C(=O)N(c2ccc(Cl)cc2)C(=O)C(=O)C1c1nc2ccccc2o1`, the TGI in the assay on SNB-75 CNS, in the assay with CCRF-CEM leukemia, in the assay on NCI-H460 lung, in the assay with ACHN renal, in the assay with OVCAR-3 ovarian and with OVCAR-5 ovarian was above 100 µM in each case. The TGI in the assay on MOLT-4 leukemia and with HOP-62 NSCLC was above 100 µM throughout.

For `CCCCCOCC(O)CO` (stereo unspecified), the TGI in the assay with NCI-H460 lung, with ACHN renal, in the assay with OVCAR-3 ovarian, in the assay with OVCAR-5 ovarian and with HOP-62 NSCLC was above 100 µM each time.
